System: AKT protein phosphorylated on serine 473 (pAKT-S473)
Experiment: Study of pAKT expression in PC3 human prostate carcinoma cells measured by western blotting (Test A)
Format: cell-based
Conditions: PC-3, inhibition of AKT phosphorylation (pAKT-S473), 1 to 2 hours incubation, absolute IC50, mean of two experiments
Method: (§1) The inhibitory activity of the molecules on AKT phosphorylation is measured either by western blotting using the technique described below, or by the MSD Multi-spot Biomarker detection technique from Meso Scale Discovery also described below.
Study of pAKT Expression in PC3 Human Prostate Carcinoma Cells Measured by Western Blotting (Test A):
(§2) On day 2, the cells are incubated in the presence or absence of the test products for 1 to 2 hours at 37° C. in the presence of 5% CO2. The molecules, diluted in dimethyl sulphoxide (DMSO Sigma #D2650), are added from a 10-times concentrated stock solution, the final percentage of DMSO being 0.1%. The molecules are tested either at a single concentration of less than or equal to 10 μM, or at increasing concentrations in a range that can extend from less than 1 nM to 10 μM.
After this incubation, the cells are lysed for the preparation of the proteins.
The lysate is centrifuged for 10 min at 6000 rpm. 155 μl of supernatant are recovered. 150 μl are incubated for denaturation for 5 min at 95° C. in the presence of 4× NuPAGE LDS Sample Buffer diluted 4-fold (InVitrogen ref NP0007) and of 10× NuPAGE Sample Reducing Agent diluted 10-fold (InVitrogen ref NP0009). These samples are then frozen at −20° C.
The gel is then transferred on to an Invitrolon PVDF membrane (Invitrogen #LC2007) permeabilised beforehand and for a few seconds in ethanol (Ethanol Fischer Scientific #E/0600DF/15).
The transfer is carried out in a Biorad tank at 30 volts overnight or at 60 volts for 3 hours, in the presence of 20× NUPAGE Transfer Buffer diluted 20-fold (InVitrogen ref NP0006).
The membrane is then saturated in saturating solution composed of TBS (10× Tris Buffered Saline, Sigma #T5912, diluted 10-fold), 0.1% Tween (Sigma #P5927) and 3% BSA (Bovine Albumin Serum Fraction V, Sigma #A4503) for 6 h after overnight transfer or else for 1 h after transfer for a period of 3 h.
Two rinses for min in washing solution composed of TBS and 0.1% Tween 20 are carried out before hybridisation of the secondary antibodies.
The secondary antibodies are diluted 110000th for the rabbit anti-Mouse IgG HRP antibody (W402 Promega) and to 110000th for the goat anti-Rabbit IgG HRP antibody (W401 Promega) in saturating solution, and then shaken for 1 h at ambient temperature.
Two rinses for 30 min in washing solution are carried out and then a rinse for 5 min in H2O is carried out in order to eliminate the remaining Tween 20.
The luminescence is read with the FujiFilm device (Ray Test).
The FUJI device measures the total luminescence signal obtained (AU) for each band selected. It then subtracts the background noise (BG) proportional to the size of the band selected (Area), said background noise being calculated from a specific background noise band, with a view to obtaining the specific signal (AU-BG) for each band. The band obtained in the absence of product and in the presence of 0.1% DMSO is considered to be the 100% signal. The software calculates the % specific activity (Ratio) obtained for each band selected as a function of this 100% signal. The percentage inhibition is calculated for each concentration according to the formula (100%−Ratio).
Two independent experiments make it possible to calculate the mean of the percentages of inhibition obtained at a given concentration for the products tested only at one concentration.
Two independent experiments make it possible to calculate the mean of the IC50s.

`O=C(Cc1nc(N2CCOCC2)cc(=O)[nH]1)N1CCc2ccccc21` [Example 51, 2-[2-(2,3-dihydro-1 H-indol-1-yl)-2-oxoethyl]-6-(morpholin-4-yl)pyrimidin-4(3H)-one] was tested. Which IC50 did it give?
Its IC50 is 133 nM.

For `Cc1cccc(NC(=O)Cc2nc(N3CCOCC3)cc(=O)[nH]2)c1` [Example 23, N-(3-methylphenyl)-2-[4-(morpholin-4-yl)-6-oxo-1,6-dihydropyrimidin-2-yl]acetamide], which IC50 is on record?
The IC50 was 39 nM.

For `O=C(Cc1nc(N2CCOCC2)cc(=O)[nH]1)Nc1ccc(F)cc1O` [Example 50, N-(4-fluoro-2-hydroxyphenyl)-2-[4-(morpholin-4-yl)-6-oxo-1,6-dihydropyrimidin-2-yl]acetamide], which IC50 is on record?
The IC50 was 6720 nM.

With `COc1cc(NC(=O)Cc2nc(N3CCOCC3)cc(=O)[nH]2)ccc1F` [Example 8, N-(4-fluoro-3-methoxyphenyl)-2-[4-(morpholin-4-yl)-6-oxo-1,6-dihydropyrimidin-2-yl]acetamide] as the molecule, how does the IC50 read?
Its IC50 is 318 nM.

With `O=C(Cc1nc(N2CCOCC2)cc(=O)[nH]1)Nc1cccc(C(F)(F)F)c1` [Example 17, 2-[4-(morpholin-4-yl)-6-oxo-1,6-dihydropyrimidin-2-y]-N-[3-(trifluoromethyl)phenyl]acetamide] as the molecule, how does the IC50 read?
The IC50 was 1480 nM.

Which IC50 does the source give for `O=C(Cc1nc(N2CCOCC2)cc(=O)[nH]1)Nc1cc(F)ccc1O` [Example 65, N-(5-fluoro-2-hydroxyphenyl)-2-[4-(morpholin-4-yl)-6-oxo-1,6-dihydropyrimidin-2-yl]acetamide] here?
The IC50 was 6460 nM.

`O=C(Cc1nc(N2CCOCC2)cc(=O)[nH]1)Nc1cc(F)c(F)c(F)c1` [Example 34, 2-[4-(morpholin-4-yl)-6-oxo-1,6-dihydropyrimidin-2-yl]-N-(3,4,5-trifluorophenyl)acetamide] was tested. Which IC50 did it give?
The IC50 was 609 nM.

`Cc1cc(NC(=O)Cc2nc(N3CCOCC3)cc(=O)[nH]2)ccc1F` [Example 28, N-(4-fluoro-3-methylphenyl)-2-[4-(morpholin-4-yl)-6-oxo-1,6-dihydropyrimidin-2-yl]acetamide] was tested. Which IC50 did it give?
Its IC50 is 171 nM.

For `CC(C)Oc1cccc(NC(=O)Cc2nc(N3CCOCC3)cc(=O)[nH]2)c1` [Example 44, 2-[4-(morpholin-4-yl)-6-oxo-1,6-dihydropyrimidin-2-yl]-N-[3-(propan-2-yloxy)phenyl]acetamide], which IC50 is on record?
Its IC50 is 308 nM.

`COc1cccc(NC(=O)Cc2nc(N3CCOCC3)cc(=O)[nH]2)c1` [Example 16, N-(3-methoxyphenyl)-2-[4-(morpholin-4-yl)-6-oxo-1,6-dihydropyrimidin-2-yl]acetamide] was tested. Which IC50 did it give?
The IC50 was 850 nM.

Which IC50 does the source give for `O=C(Cc1nc(N2CCOCC2)cc(=O)[nH]1)Nc1ccccc1` [Example 1, 2-[4-(morpholin-4-yl)-6-oxo-1,6-dihydropyrimidin-2-yl]-N-phenylacetamide] here?
The IC50 was 102 nM.

With `Cn1c(CC(=O)Nc2ccc(F)cc2)nc(N2CCOCC2)cc1=O` [Example 67, N-(4-fluorophenyl)-2-[1-methyl-4-(morpholin-4-yl)-6-oxo-1,6-dihydropyrimidin-2-yl]acetamide] as the molecule, how does the IC50 read?
Its IC50 is 2210 nM.

Which IC50 does the source give for `COc1ccccc1NC(=O)Cc1nc(N2CCOCC2)cc(=O)[nH]1` [Example 11, N-(2-methoxyphenyl)-2-[4-(morpholin-4-yl)-6-oxo-1,6-dihydropyrimidin-2-yl]acetamide] here?
Its IC50 is 632 nM.

`COC(=O)c1cc(NC(=O)Cc2nc(N3CCOCC3)cc(=O)[nH]2)ccc1F` [Example 57, methyl 2-fluoro-5-({[4-(morpholin-4-yl)-6-oxo-1,6-dihydropyrimidin-2-yl]acetyl}amino)benzoate] was tested. Which IC50 did it give?
Its IC50 is 5860 nM.

`COC(=O)c1cccc(NC(=O)Cc2nc(N3CCOCC3)cc(=O)[nH]2)c1` [Example 20, methyl 3-({[4-(morpholin-4-yl)-6-oxo-1,6-dihydropyrimidin-2-yl]acetyl}amino)benzoate] was tested. Which IC50 did it give?
Its IC50 is 1310 nM.

With `O=C(Cc1nc(N2CCOCC2)cc(=O)[nH]1)Nc1cccc(Cl)c1` [Example 3, N-(3-chlorophenyl)-2-[4-(morpholin-4-yl)-6-oxo-1,6-dihydropyrimidin-2-yl]acetamide] as the molecule, how does the IC50 read?
The IC50 was 100 nM.

How did the IC50 turn out when `O=C(Cc1nc(N2CCOCC2)cc(=O)[nH]1)Nc1cccc(C(=O)O)c1` [Example 21, 3-({[4-(morpholin-4-yl)-6-oxo-1,6-dihydropyrimidin-2-yl]acetyl}amino)benzoic acid] was run?
Its IC50 is 10000 nM.

Which IC50 does the source give for `COc1cc(NC(=O)C(C)c2nc(N3CCOCC3)cc(=O)[nH]2)ccc1F` (stereo not drawn) [Example 39, N-(4-fluoro-3-methoxyphenyl)-2-[4-(morpholin-4-yl)-6-oxo-1,6-dihydropyrimidin-2-yl]propanamide] here?
Its IC50 is 1760 nM.

System: AKT protein phosphorylated on serine 473 (P-AKT-S473)
Experiment: Study of pAKT expression in PC3 human prostate carcinoma cells measured by the MSD Multi-spot Biomarker Detection technique (Test B)
Format: cell-based
Conditions: PC-3, inhibition of AKT phosphorylation (P-AKT-S473), MSD sandwich immunoassay, 1 to 2 h incubation, absolute IC50, mean of 2 experiments
Method: as §1
Study of pAKT Expression in PC3 Human Prostate Carcinoma Cells Measured by the MSD Multi-Spot Biomarker Detection Technique from Meso Scale Discovery (Test B):
The primary antibody specific for P-AKT-S473 (Kit #K151CAD) is coated on to an electrode in each well of the 96-well plates of the MSD, kit: after the addition of a protein lysate to each well, the signal is visualised by adding a secondary detection antibody labelled with an electrochemoluminescent compound. The procedure followed is that described in the kit.
as §2, with “h” for “hours”, “5% of” for “5%”, “20-times” for “10-times”
After this incubation, the cells are lysed for the preparation of the proteins. […] At this stage, the plates containing the lysates can be stored at −20° C. or at −80° C.
The wells of the 96-well plates of the MSD kit are saturated for 1 h at ambient temperature with the blocking solution of the MSD kit. Four washes are carried out with 150 μl of Tris Wash Buffer of the MSD kit. The lysates previously prepared are transferred into the 96-well multi-spot plates of the MSD kit and incubated for 1 h at ambient temperature, with shaking. Four washes are carried out with 150 μl of Tris Wash Buffer of the MSD kit. 25 μl of the MSD sulfo-tag detection antibody solution are added to the wells and incubated for 1 h at ambient temperature, with shaking. Four washes are carried out with 150 μl of Tris Wash Buffer of the MSD kit. 150 μl of Read Buffer of the MSD kit are added to the wells and the plates are read immediately on the S12400 instrument from Meso Scale Discovery.
The instrument measures a signal for each well. Wells without cells and containing the lysis buffer serve to determine the background noise that will be subtracted from all the measurements (min). The wells containing cells in the absence of product and in the presence of 0.1% DMSO are considered to be the 100% signal (max). The percentage inhibition is calculated for each concentration of test product according to the following formula: (1-((test-min)(max-min)))×100.
2 independent experiments make it possible to calculate the mean of the IC50 values.

`O=C(Cc1nc(N2CCOCC2)cc(=O)[nH]1)Nc1cc(Cl)c(F)c(Cl)c1` [Example 61, N-(3,5-dichloro-4-fluorophenyl)-2-[4-(morpholin-4-yl)-6-oxo-1,6-dihydropyrimidin-2-yl]acetamide] was tested. Which IC50 did it give?
Its IC50 is 77 nM.

For `Cn1c(CC(=O)Nc2ccc(F)c(C(F)F)c2)nc(N2CCOCC2)cc1=O` [Example 97, N-[3-(difluoromethyl)-4-fluorophenyl]-2-[1-methyl-4-(morpholin-4-yl)-6-oxo-1,6-dihydropyrimidin-2-yl]acetamide], which IC50 is on record?
Its IC50 is 260 nM.

`O=C(Cc1nc(N2CCOCC2)cc(=O)[nH]1)Nc1cccc2sccc12` [Example 105, N-(1-benzothiophen-4-yl)-2-[4-(morpholin-4-yl)-6-oxo-1,6-dihydropyrimidin-2-yl]acetamide] was tested. Which IC50 did it give?
The IC50 was 15 nM.

With `Cn1c(CC(=O)N2CCc3c(O)cccc32)nc(N2CCOCC2)cc1=O` [Example 109, 2-[2-(4-hydroxy-2,3-dihydro-1H-indol-1-yl)-2-oxoethyl]-3-methyl-6-(morpholin-4-yl)pyrimidin-4(3H)-one] as the molecule, how does the IC50 read?
The IC50 was 43 nM.

With `CC1Cc2ccccc2N1C(=O)Cc1nc(N2CCOCC2)cc(=O)[nH]1` (stereo not drawn) [Example 96, 2-[2-(2-methyl-2,3-dihydro-1H-indol-1-yl)-2-oxoethyl]-6-(morpholin-4-yl)pyrimidin-4(3H)-one] as the molecule, how does the IC50 read?
The IC50 was 6 nM.

Which IC50 does the source give for `O=C(Cc1nc(N2CCOCC2)cc(=O)[nH]1)Nc1cc(F)c(F)cc1F` [Example 60, 2-[4-(morpholin-4-yl)-6-oxo-1,6-dihydropyrimidin-2-yl]-N-(2,4,5-trifluorophenyl)acetamide] here?
Its IC50 is 290 nM.
